Data from US20240400584A1, “COMPOUNDS AND METHODS FOR MODULATING SPLICING” (REMIX THERAPEUTICS INC., priority 2021, published 2024).

What was measured:
[1] = test system: HTT; test: RT-qPCR splicing assay, HTT AJ/CJ mRNA; format: cell-based, human; conditions: A673 or K562 cells; for IC50: decrease in canonical junction mRNA; for AC50: increase in alternative junction mRNA
In short: (§1)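 Following 24 h compound exposure at 37 °C (11 points, 3-fold, highest 10 uM; DMSO ≤0.25%), A673 or K562 lysates underwent RT-qPCR for exon-inclusion (AJ) and canonical (CJ) junctions of HTT and MYB. Relative quantification used housekeeping-gene ΔCt and DMSO-normalized ΔΔCt, converted to percentage response.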

[2] = test system: HTT; test: Gene panel canonical junction qPCR assay, HTT CJ mRNA (Table 7); format: cell-based, human; conditions: read-out: HTT CJ mRNA decrease IC50
In short: (§2)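 Read-out is the IC50 for loss of canonical-junction mRNA, fitted with a four-parameter logistic curve to percentage response. Response came from RT-qPCR on compound-treated A673 or K562 cell lysates, ΔCt against a housekeeping gene and normalized to DMSO.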

[3] = test system: Target C; test: Gene panel canonical junction qPCR assay, Target C CJ mRNA (Table 7); format: cell-based, human; conditions: Homo sapiens, read-out: Target C CJ mRNA decrease IC50
In short: as §2

[4] = test system: HiBit-tagged HTT in K562 cells; test: HiBiT protein abundance assay, HTT; format: cell-based, human; conditions: HiBiT-modified K562 cells, 24 hours, luminescence
Protocol: (§3) Compounds described herein were used to screen for effects on quantitative protein abundance using a HiBit assay system (Promega). Quantitative protein abundance was determined by measuring the protein levels of HiBit-tagged protein targets expressed in cell culture via luminescence using the Nano-Glo HiBiT Lytic Detection System, which uses a split complementation assay format to reconstitute NanoBiT enzyme to generate a luminescent signal. A protein abundance assay was developed such that endogenous protein targets could be modified with the HiBiT peptide tag and their abundance could be assessed after compound treatment. Briefly, K562 cell lines containing a HiBiT-modification were treated with various compounds described herein (e.g., compounds of Formulas (I)). After treatment for 24 hours, the protein abundance of a specific target was determined by measuring luminescence.
(§4) Cells were maintained in IMDM with 10% FBS. Before the assay, cells were diluted with […] growth media (IMDM+[…] media) and were seeded in a 384-well plate at a density of 10000 cells/well (for each cell line listed in Table 8). Each compound was prepared as a 10-point 3-fold serial dilution in DMSO with the top dose at a final concentration of 10 μM in the well. Unmodified K562 cells were added at the previously specified density with DMSO to serve as an assay baseline and positive control (PC) and DMSO only with the respective modified cell lines was added to the negative control (NC) columns. Final DMSO concentration was kept at or below 0.25% o. Treated cell plates were placed in an incubator at 37° C. with […] for 24 hours. After 24 hours, 25 μL of Complete HiBit Lytic reagent was added to each well at room temperature (e.g. one plate requiring 10 mL Lytic Buffer, 100 μL LgBiT Protein, 200 μL Lytic Substrate), shaken for 5 minutes at 600 RPM, then left to sit for 10 minutes for signal to stabilize before reading on a Spark Cyto plate reader (Tecan) with a 500 ms measurement time.
(§5) To determine compound effects on protein abundance of each target in Table 9, the percent response for each respective cell line was calculated at each compound concentration as follows:
(§6) For the normalized response at each concentration, a four-parameter logistical regression was fit to the data and the response was interpolated at the […] to determine a concentration for protein abundance at 50% o (IC50) the untreated control.

[5] = test system: HiBit-tagged MYB in K562 cells; test: HiBiT protein abundance assay, MYB; format: cell-based, human; conditions: HiBiT-modified K562 cells, 24 hours, luminescence
Protocol: as §3, §4, §5, §6

[6] = test system: HiBit-tagged Target C in K562 cells; test: HiBiT protein abundance assay, Target C; format: cell-based, human; conditions: HiBiT-modified K562 cells, 24 hours, luminescence
Protocol: as §3, §4, §5, §6

[7] = test system: MYB; test: RT-qPCR splicing assay, MYB AJ/CJ mRNA; format: cell-based; conditions: Homo sapiens, A673 or K562 cells, 24 hours; for IC50: decrease in canonical junction mRNA; for AC50: increase in alternative junction mRNA
In short: as §1

[8] = test system: SMN2; test: Gene panel canonical junction qPCR assay, SMN2 CJ mRNA (Table 7); format: cell-based; conditions: Homo sapiens, read-out: SMN2 CJ mRNA decrease IC50
In short: as §2

[9] = test system: MYB; test: Gene panel canonical junction qPCR assay, MYB CJ mRNA (Table 7); format: cell-based; conditions: Homo sapiens, read-out: MYB CJ mRNA decrease IC50
In short: as §2

With `c1cnn(-c2ccc3c(c2)OCc2nc(N[C@@H]4C[C@H]5CC[C@@H](C4)N5)ccc2-3)c1` [Compound 119] as the molecule, how does the IC50 ([1]; 24 hours) read?
Its IC50 is over 10000 nM.

What about the AC50 ([1]; 24 hours) of the same molecule?
The AC50 was over 10000 nM.

And the IC50 [2]?
Its IC50 is over 10000 nM.

And the IC50 [3]?
Its IC50 is 1000 to 10000 nM.

And the IC50 [4]?
Its IC50 is 100 to 1000 nM.

What about the IC50 [5] of the same molecule?
The IC50 was 1000 to 10000 nM.

What about the IC50 [6] of the same molecule?
Its IC50 is 1000 to 10000 nM.

Which results are given for `CC1(C)CC(Nc2ccc3c(n2)CCOc2cc(-c4cn[nH]c4)ccc2-3)CC(C)(C)N1` [Compound 141]?
IC50 ([1]; Homo sapiens, 24 h): > 10000 nM; AC50 ([1]; Homo sapiens, 24 h): > 10000 nM; IC50 ([2]; Homo sapiens): > 10000 nM; IC50 [3]: 1000 to 10000 nM; IC50 [4]: 1000 to 10000 nM; IC50 [5]: < 100 nM; IC50 [6]: 1000 to 10000 nM

Which IC50 ([1]; Homo sapiens, 24 h) does the source give for `CC(C)(C)NC1CCN(c2ccc3c(n2)OCc2cc(-c4c(F)cn[nH]c4=O)ccc2-3)C1` (centres unmarked) [Compound 315, 4-{3-[3-(tert-butylamino)pyrrolidin-1-yl]-6H-isochromeno[3,4-b]pyridin-8-yl}-5-fluoro-2H-pyridazin-3-one] here?
Its IC50 is over 10000 nM.

And the AC50 ([1]; Homo sapiens, 24 h)?
The AC50 was over 10000 nM.

What about the IC50 [7] of the same molecule?
The IC50 was over 10000 nM.

What about the AC50 [7] of the same molecule?
Its AC50 is over 10000 nM.

And the IC50 ([2]; Homo sapiens)?
Its IC50 is over 10000 nM.

And the IC50 [8]?
The IC50 was over 10000 nM.

And the IC50 [9]?
The IC50 was over 10000 nM.

What about the IC50 [3] of the same molecule?
Its IC50 is over 10000 nM.

How did the IC50 ([1]; Homo sapiens, 24 h) turn out when `COc1cc(-c2ccc3c(c2)COc2nc(N4CCC(NC(C)(C)C(C)C)C4)ccc2-3)cnn1` (centres unmarked) [Compound 316, N-(2,3-dimethylbutan-2-yl)-1-[8-(6-methoxypyridazin-4-yl)-6H-isochromeno[3,4-b]pyridin-3-yl]pyrrolidin-3-amine] was run?
Its IC50 is under 100 nM.

And the AC50 ([1]; Homo sapiens, 24 h)?
Its AC50 is 100 to 1000 nM.

What about the IC50 [7] of the same molecule?
The IC50 was 100 to 1000 nM.

And the AC50 [7]?
The AC50 was 100 to 1000 nM.

What about the IC50 ([2]; Homo sapiens) of the same molecule?
The IC50 was under 100 nM.

And the IC50 [8]?
Its IC50 is under 100 nM.

What about the IC50 [9] of the same molecule?
The IC50 was 100 to 1000 nM.

What about the IC50 [3] of the same molecule?
The IC50 was 100 to 1000 nM.

How did the IC50 ([1]; Homo sapiens, 24 h) turn out when `COc1cc(-c2ccc3c(c2)COc2nc(N4CCN[C@H](C(C)(C)C)C4)ccc2-3)cnn1` [Compound 317, 5-{3-[(3R)-3-tert-butylpiperazin-1-yl]-6H-isochromeno [3,4-b]pyridin-8-yl}-3-methoxypyridazine] was run?
Its IC50 is 100 to 1000 nM.

And the AC50 ([1]; Homo sapiens, 24 h)?
The AC50 was 100 to 1000 nM.

What about the IC50 [7] of the same molecule?
Its IC50 is 100 to 1000 nM.

What about the AC50 [7] of the same molecule?
The AC50 was 100 to 1000 nM.

And the IC50 ([2]; Homo sapiens)?
Its IC50 is 100 to 1000 nM.

And the IC50 [8]?
The IC50 was under 100 nM.

And the IC50 [9]?
Its IC50 is 100 to 1000 nM.

What about the IC50 [3] of the same molecule?
Its IC50 is 100 to 1000 nM.

Which IC50 ([1]; Homo sapiens, 24 h) does the source give for `COc1cc(-c2ccc3c(c2)COc2nc(N4CCN[C@@H](C(C)(C)C)C4)ccc2-3)cnn1` [Compound 318, 5-{3-[(3S)-3-tert-butylpiperazin-1-yl]-6H-isochromeno[3,4-b]pyridin-8-yl}-3-methoxypyridazine] here?
The IC50 was under 100 nM.

And the AC50 ([1]; Homo sapiens, 24 h)?
The AC50 was 100 to 1000 nM.

And the IC50 [7]?
Its IC50 is 100 to 1000 nM.

And the AC50 [7]?
The AC50 was 100 to 1000 nM.

What about the IC50 ([2]; Homo sapiens) of the same molecule?
Its IC50 is under 100 nM.

What about the IC50 [8] of the same molecule?
Its IC50 is under 100 nM.

And the IC50 [9]?
Its IC50 is 100 to 1000 nM.

And the IC50 [3]?
The IC50 was 100 to 1000 nM.

Which IC50 ([1]; Homo sapiens, 24 h) does the source give for `COc1cc(-c2ccc3c(c2)COc2nc(N4CCC(N(C)C5CC5)C4)ccc2-3)cnn1` (centres unmarked) [Compound 320] here?
Its IC50 is 1000 to 10000 nM.

What about the AC50 ([1]; Homo sapiens, 24 h) of the same molecule?
Its AC50 is 1000 to 10000 nM.

And the IC50 [7]?
The IC50 was over 10000 nM.

What about the AC50 [7] of the same molecule?
The AC50 was 1000 to 10000 nM.

And the IC50 ([2]; Homo sapiens)?
The IC50 was 1000 to 10000 nM.

And the IC50 [8]?
The IC50 was 100 to 1000 nM.

What about the IC50 [9] of the same molecule?
Its IC50 is over 10000 nM.

And the IC50 [3]?
Its IC50 is 1000 to 10000 nM.

For `CCN(CC)C1CCN(c2ccc3c(n2)OCc2cc(-c4cnnc(OC)c4)ccc2-3)C1` (centres unmarked) [Compound 321], which IC50 ([1]; Homo sapiens, 24 h) is on record?
The IC50 was 100 to 1000 nM.

What about the AC50 ([1]; Homo sapiens, 24 h) of the same molecule?
Its AC50 is 100 to 1000 nM.

What about the IC50 [7] of the same molecule?
Its IC50 is 1000 to 10000 nM.

And the AC50 [7]?
Its AC50 is 1000 to 10000 nM.

And the IC50 ([2]; Homo sapiens)?
The IC50 was 100 to 1000 nM.

And the IC50 [8]?
The IC50 was 100 to 1000 nM.

And the IC50 [9]?
Its IC50 is 1000 to 10000 nM.

What about the IC50 [3] of the same molecule?
Its IC50 is 1000 to 10000 nM.
